Data on six compounds can be found in BindingDB's records for doi:10.1172/JCI119225 (Cedars-Sinai Research Institute, 1997).

Bridge positions count the residues as written; N and C are the ends. Square brackets hold non-standard residues; d marks the D form. Peptide text beside a SMILES is read from it. d2Nal = N[C@H](Cc1ccc2ccccc2c1)C(=O)O

Assay [1] has as its target Somatostatin receptor type 4 (Homo sapiens, UniProt P31391).
Assay [2] concerns the target Somatostatin receptor type 5 (Homo sapiens, UniProt P35346).
The target of assay [3] is Somatostatin receptor type 3 (Homo sapiens, UniProt P32745).
Chain of Somatostatin receptor type 3 (P32745 whole entry): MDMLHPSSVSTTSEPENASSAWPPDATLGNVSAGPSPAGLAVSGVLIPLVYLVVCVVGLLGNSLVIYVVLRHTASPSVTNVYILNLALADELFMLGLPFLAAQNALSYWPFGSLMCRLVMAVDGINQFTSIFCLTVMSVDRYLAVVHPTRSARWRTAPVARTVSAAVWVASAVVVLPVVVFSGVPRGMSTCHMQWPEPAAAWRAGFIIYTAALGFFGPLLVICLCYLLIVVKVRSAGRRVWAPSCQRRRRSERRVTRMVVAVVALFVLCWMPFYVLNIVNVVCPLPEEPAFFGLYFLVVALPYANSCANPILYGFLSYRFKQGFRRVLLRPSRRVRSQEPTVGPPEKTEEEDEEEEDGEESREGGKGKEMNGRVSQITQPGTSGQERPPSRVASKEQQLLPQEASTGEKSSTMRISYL
Assay [4] deals with Somatostatin receptor type 2 (Homo sapiens, UniProt P30874).
Chain of Somatostatin receptor type 2 (P30874 whole entry): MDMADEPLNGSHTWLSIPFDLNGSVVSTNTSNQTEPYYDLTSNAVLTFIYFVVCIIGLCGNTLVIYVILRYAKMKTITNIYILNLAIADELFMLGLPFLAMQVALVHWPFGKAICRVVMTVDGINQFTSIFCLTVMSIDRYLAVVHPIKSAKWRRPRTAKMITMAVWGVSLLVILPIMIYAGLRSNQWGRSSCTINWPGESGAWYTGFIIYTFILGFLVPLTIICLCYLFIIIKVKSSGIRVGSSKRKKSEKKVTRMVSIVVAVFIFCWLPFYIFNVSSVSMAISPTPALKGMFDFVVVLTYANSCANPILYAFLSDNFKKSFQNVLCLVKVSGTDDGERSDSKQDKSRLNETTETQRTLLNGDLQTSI

Chain of Somatostatin receptor type 4 (P31391 whole entry): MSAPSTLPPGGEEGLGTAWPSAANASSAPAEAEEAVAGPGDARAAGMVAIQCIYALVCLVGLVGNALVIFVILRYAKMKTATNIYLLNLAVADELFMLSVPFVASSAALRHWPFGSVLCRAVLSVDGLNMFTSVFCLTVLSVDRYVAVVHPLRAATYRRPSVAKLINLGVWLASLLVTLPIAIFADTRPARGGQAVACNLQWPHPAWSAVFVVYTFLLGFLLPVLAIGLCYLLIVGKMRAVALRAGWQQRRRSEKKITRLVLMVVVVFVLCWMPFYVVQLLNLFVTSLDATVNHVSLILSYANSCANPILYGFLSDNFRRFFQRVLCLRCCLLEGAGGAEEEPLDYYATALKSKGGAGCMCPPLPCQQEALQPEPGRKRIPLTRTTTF
Chain of Somatostatin receptor type 5 (P35346 whole entry): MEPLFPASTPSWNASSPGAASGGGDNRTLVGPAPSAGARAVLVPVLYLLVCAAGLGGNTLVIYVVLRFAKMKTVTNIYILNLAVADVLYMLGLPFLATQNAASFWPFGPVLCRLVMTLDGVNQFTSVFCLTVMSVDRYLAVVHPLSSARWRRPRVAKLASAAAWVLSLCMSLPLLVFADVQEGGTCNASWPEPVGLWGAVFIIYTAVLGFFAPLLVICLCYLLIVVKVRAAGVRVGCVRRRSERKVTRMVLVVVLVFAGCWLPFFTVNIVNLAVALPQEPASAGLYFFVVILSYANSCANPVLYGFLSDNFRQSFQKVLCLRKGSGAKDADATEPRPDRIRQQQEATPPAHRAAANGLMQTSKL

With `CC[C@@H]1NC(=O)[C@H](CCCCN)NC(=O)[C@@H](Cc2c[nH]c3ccccc23)NC(=O)[C@H](Cc2ccc(O)cc2)NC(=O)[C@@H](NC(=O)[C@@H](Cc2ccccc2)NC(=O)CN2CCN(CCO)CC2)CSSC[C@@H](C(=O)N[C@H](C(N)=O)[C@@H](C)O)NC1=O` [BIM-23190], the half-maximal inhibitory concentration (IC50) in assay [1] turned out to be 1000 nM.

Take `CC(C)[C@H](NC(=O)[C@H](CCCCN)NC(=O)[C@@H](Cc1c[nH]c2ccccc12)NC(=O)[C@H](Cc1ccc(O)cc1)NC(=O)[C@H](Cc1ccccc1)NC(=O)[C@H](N)Cc1ccccc1)C(=O)N[C@@H](Cc1ccccc1)C(=O)N[C@H](Cc1ccc2ccccc2c1)C(N)=O` [CAS_150155-61-6] (H-[dF]FY[dW]KVF[d2Nal]-NH2): the half-inhibitory concentration (IC50) in assay [2] worked out at 12.1 nM; in assay [3], 177 nM; in assay [4], 132 nM; in assay [1], 234 nM.

As to `C[C@@H](O)[C@@H]1NC(=O)[C@H](CCCCN)NC(=O)[C@@H](Cc2c[nH]c3ccccc23)NC(=O)[C@H](Cc2ccccc2)NC(=O)[C@H](Cc2ccccc2)NC(=O)[C@H](N)CSSC[C@H](C(N)=O)NC(=O)[C@H](Cc2ccccc2)NC1=O` (H-[dC]FF[dW]KTF[dC]-NH2; disulfide 1-8), the IC50 turned out to be 0.37 nM in assay [2], 61.6 nM in assay [3] and 15.1 nM in assay [4].

In turn, `CC[C@@H]1NC(=O)[C@H](CCCCN)NC(=O)[C@@H](Cc2c[nH]c3ccccc23)NC(=O)[C@H](Cc2ccc(O)cc2)NC(=O)[C@@H](NC(=O)[C@H](N)Cc2ccccc2)CSSC[C@@H](C(=O)N[C@H](C(N)=O)[C@@H](C)O)NC1=O` [D-Phe-L-Cys(1)-L-Tyr-D-Trp-L-Lys-L-Abu-L-Cys(1)-L-Thr-NH2] had an IC50 in assay [3] of 89 nM.

In assay [1], `C[C@@H](O)[C@H](NC(=O)[C@H](Cc1ccccc1)NC(=O)[C@@H](NC(=O)[C@H](CCCCN)NC(=O)[C@@H](Cc1c[nH]c2ccccc12)NC(=O)[C@H](Cc1ccccc1)NC(=O)[C@H](Cc1ccccc1)NC(=O)[C@H](N)Cc1ccccc1)[C@@H](C)O)C(N)=O` [CAS_133073-82-2] (H-[dF]FF[dW]KTFT-NH2) had a half-maximal inhibitory concentration (IC50) of 132 nM.

For the compound `CC(C)[C@@H]1NC(=O)[C@H](CCCCN)NC(=O)[C@@H](Cc2c[nH]c3ccccc23)NC(=O)[C@H](Cc2ccc(O)cc2)NC(=O)[C@@H](NC(=O)[C@H](N)Cc2ccc3ccccc3c2)CSSC[C@@H](C(=O)N[C@H](C(N)=O)[C@@H](C)O)NC1=O` [3-(2-Naphtyl)-D-Ala-L-Cys(1)-L-Tyr-D-Trp-L-Lys-L-Val-L-Cys(1)-L-Thr-NH2], half-maximal inhibition in assay [3] (IC50) required 107 nM.

One may read the IC50 as the concentration needed to halve the response being measured. Low values mean greater potency in that assay, high ones weaker potency in that assay.
